We go through three compounds from paper PMC12441834, “Highly Potent and Subtype-Selective Sperm-Specific Potassium Channel SLO3 Inhibitors Display High Tissue Exposure in the Murine Female Reproductive Tract” (ACS Pharmacology & Translational Science, 2025).

Where two headings read alike, the source gives them in different places.

Data set [1] addresses T1, hSLO1 (Homo sapiens, UniProt Q12791).
T1 construct: expressed in transfected cells; host or cells: HEK293
Put plainly: SLO1 inhibition in HEK cells. Type of data set: cell-based. The following applies: for SLO1 selectivity (fold selective for SLO3): SLO1 IC50 / hSLO3 IC50. Here is the method:
(§1) HEK293 cells were transfected with the bicistronic vector pBUD-CE4.1 containing the genes of interest and a gene conferring antibiotic resistance. Cells were exposed to gradients of selection antibiotics, and optimal growth conditions for the stable lines were as follows: SLO3 and γ2 (SLO3-γ2) supplemented with 700 μg/mL Zeocin (Invitrogen); human SLO1 and β1 (SLO1-β1) with 1 mg/mL G418 (Sigma) and 3 μg/mL puromycin (Corning, Thermo Fisher); and human SLO1 and β4 (SLO1-β4) with 250 μg/mL Zeocin and 3 μg/mL puromycin. All cell lines were grown in Dulbecco’s Modified Eagle Medium (Gibco, Thermo Fisher) supplemented with 10% fetal bovine serum, 1% penicillin–streptomycin (Millipore Sigma), and selection antibiotics. To generate cells expressing SLO1 and γ2, stable SLO1-expressing HEK293 cells were transiently transfected with expression vectors for γ2 and green fluorescent protein (GFP) in the presence of lipofectamine (Invitrogen) for 5 h.
(§2) The cells were then washed and incubated in supplemented Dulbecco’s Modified Eagle Medium for 48 h before use. Patch-clamp electrophysiology was performed only on cells expressing GFP.
(§3) Currents in HEK293 cells were measured in the whole-cell patch-clamp configuration with an Axopatch 200B amplifier, digitized with a Digidata 1440A, and interfaced with Clampex 10.6.0.13 (Molecular Devices). […] An isolated cell was located on an Axiovert 200 microscope (Zeiss), and a gigaohm seal was formed with a borosilicate pipette with resistance between 3 and 6 MΩ and filled with internal solution (140 mM KMeSO3, 10 mM HEPES, 10 mM MES, 1 mM EGTA, pH 7). The seal was then broken by applying a negative pressure. Cells were kept at a holding potential of −60 mV for 50 ms, tested with a stepped voltage protocol from −80 to +150 mV in 10 mV increments for 100 ms, and then dropped to −40 mV for 50 ms with 2.5 s between sweeps. This protocol was used to record currents present with increasing concentration of our compound of interest or 3 μL/mL vehicle (DMSO) in the bath solution. Individual cells were tested with between 1 and 5 concentrations of the compound of interest or until the patch was lost. Currents were allowed to stabilize before the initial recording and after the perfusion solution was changed before recording.

The target in data set [2] is T2, hERG (Homo sapiens, UniProt Q12809).
T2 construct: expressed in transfected cells
Put plainly: hERG patch clamp electrophysiology (HEK-293-hERG). In kind it is cell-based. Conditions: for selectivity ratio: human, HEK-293 cells stably expressing hERG, pH 7.35, hERG IC50 / hSLO3 IC50, read-out: hERG selectivity [fold] (SLO3 versus hERG); for IC50: whole-cell patch clamp, HEK-293-hERG. Here is the method:
Whole-cell patch-clamp electrophysiology was used to record hERG currents from a stably transfected monoclonal cell line expressing human hERG. The HEK-293-hERG cell line was generously provided by Dr. David Weaver (Vanderbilt University). Cells were cultured in a 5% CO2 incubator at 37 °C, dissociated with 0.25% Trypsin-EDTA, and seeded onto 12 mm circular coverslips (Electron Microscopy Sciences, PA, USA) for same-day whole-cell patch-clamp recordings. hERG currents were recorded at room temperature by using an AxoPatch 200B amplifier with Clampex 10.7 software (Molecular Devices, USA). The voltage-clamp protocol consisted of a 4-s step to +30 mV from a −80 mV holding potential, followed by a 4-s step to −40 mV, repeated every 10 s. Data were sampled at 5 kHz and filtered at 1 kHz. Patch pipettes, pulled from 1.5 mm OD thin-walled capillaries (Warner Instruments, MA, USA) using a Sutter P-1000 puller (Sutter Instrument, CA, USA), had resistances of 2–3 MΩ when filled with intracellular solution containing (mM): 135 KCl, 10 HEPES, 1 EGTA, 2 MgCl2, 2 Na2ATP (pH 7.35, adjusted with KOH). The extracellular solution contained (mM): 135 NaCl, 5 KCl, 2 CaCl2, 1 MgCl2, 5 Glucose, 10 HEPES, and 10 Sucrose (pH 7.35, adjusted with NaOH). After establishing stable baseline hERG currents, cells were perfused with compounds at concentrations of 0.03–30 μM until response saturation (typically 2–8 min). Recordings concluded with a 10 μM Quinidine solution to isolate Quinidine-sensitive currents, with compound responses expressed as fractions of this current. Peak “tail” current amplitudes at the beginning of −40 mV steps were analyzed using Clampfit 11.2 (Molecular Devices). IC50 values were calculated by fitting the Hill equation to concentration–response curves (CRCs) using the built-in Y = Bottom + (Top – Bottom)/(1 + (IC50/X)^HillSlope) model (nonlinear regression fit: [Inhibitor] vs response – Variable slope (four parameters)) in GraphPad Prism 10.4 (GraphPad Software).

Data set [3] concerns the target T3, human SLO3 (Homo sapiens, UniProt A8MYU2).
T3 construct: expressed in transfected cells
T3 sequence (A8MYU2 1-1149): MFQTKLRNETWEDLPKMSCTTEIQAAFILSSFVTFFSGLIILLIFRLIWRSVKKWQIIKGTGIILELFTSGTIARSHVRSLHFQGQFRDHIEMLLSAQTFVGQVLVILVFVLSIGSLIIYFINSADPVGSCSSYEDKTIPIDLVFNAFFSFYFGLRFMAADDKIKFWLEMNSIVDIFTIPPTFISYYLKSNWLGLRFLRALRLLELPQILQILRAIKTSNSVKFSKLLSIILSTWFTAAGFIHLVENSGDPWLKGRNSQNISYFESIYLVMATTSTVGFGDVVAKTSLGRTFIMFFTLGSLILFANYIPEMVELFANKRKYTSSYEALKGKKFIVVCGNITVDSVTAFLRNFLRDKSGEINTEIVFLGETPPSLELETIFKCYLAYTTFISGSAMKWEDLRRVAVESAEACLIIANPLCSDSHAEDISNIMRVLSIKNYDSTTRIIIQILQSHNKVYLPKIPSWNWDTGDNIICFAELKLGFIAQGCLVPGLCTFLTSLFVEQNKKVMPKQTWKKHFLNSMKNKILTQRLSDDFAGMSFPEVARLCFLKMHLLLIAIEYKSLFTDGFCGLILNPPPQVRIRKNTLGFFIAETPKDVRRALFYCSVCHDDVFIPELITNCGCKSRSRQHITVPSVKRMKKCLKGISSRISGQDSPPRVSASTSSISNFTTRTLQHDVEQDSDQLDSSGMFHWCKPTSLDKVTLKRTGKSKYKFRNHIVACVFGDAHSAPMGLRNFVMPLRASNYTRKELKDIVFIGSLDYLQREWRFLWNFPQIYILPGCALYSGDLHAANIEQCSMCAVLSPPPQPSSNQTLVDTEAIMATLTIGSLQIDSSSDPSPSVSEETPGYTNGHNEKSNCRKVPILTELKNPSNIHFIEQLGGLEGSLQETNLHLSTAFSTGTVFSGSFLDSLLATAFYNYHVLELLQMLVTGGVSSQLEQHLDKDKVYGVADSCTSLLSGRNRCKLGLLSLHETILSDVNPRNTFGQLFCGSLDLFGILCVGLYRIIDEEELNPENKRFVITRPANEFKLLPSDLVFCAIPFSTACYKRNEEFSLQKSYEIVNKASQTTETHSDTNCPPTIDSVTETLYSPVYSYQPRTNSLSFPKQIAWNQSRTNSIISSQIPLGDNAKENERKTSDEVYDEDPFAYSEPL
T3 sequence (Q8N7C0 24-313 partner): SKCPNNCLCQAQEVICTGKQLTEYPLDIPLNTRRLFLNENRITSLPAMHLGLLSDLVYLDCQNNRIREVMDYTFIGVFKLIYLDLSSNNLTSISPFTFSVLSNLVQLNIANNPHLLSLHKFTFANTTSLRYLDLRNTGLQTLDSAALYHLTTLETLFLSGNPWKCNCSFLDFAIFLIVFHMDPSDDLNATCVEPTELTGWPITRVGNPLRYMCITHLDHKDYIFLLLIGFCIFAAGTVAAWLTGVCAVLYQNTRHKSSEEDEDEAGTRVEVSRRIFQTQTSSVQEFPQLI
Put plainly: SLO3 patch-clamp electrophysiology, human SLO3-γ2 expressed in HEK293 cells. In kind it is cell-based. Conditions: transfected HEK293 cells (human SLO3-γ2), whole-cell patch clamp, currents at +100 mV; read-out: hSLO3 IC50. Here is the method:
as §1, §2, §3
Data were analyzed with a pClamp 10.6 (Molecular Devices). VU6047606 and VU6032735 inhibition dose–response relationships were fit by the Hill equation in OriginPro 7.5 (OriginLab Corporation): R=1/1+(C/IC50)^n+Ioff , in which R is fractional unblock, C is compound concentration, IC50 is the half inhibition concentration, n is the Hill coefficient, and I off is an offset item for leak current. Error bars in the figures represent the SDs. Each data point is averaged from at least 5 measurements. Curve-fitting results are reported as the fitted values with standard error, which was estimated by OriginPro according to the Error Propagation formula.
For orientation: Patch clamp records ionic current or voltage across a cell membrane.

For data set [4], the target named is T1, hSLO1. On the set-up: method as in PMID 36649421. The following applies: cited from earlier work.
The target in data set [5] is T2, hERG. On the set-up: method as in PMID 36649421. Conditions: cited from earlier work.
For data set [6], the target named is T3, human SLO3. On the set-up: method as in PMID 36649421. Conditions: earlier work of the Santi Lab; cited from earlier work.

T2 sequence (Q12809 whole entry): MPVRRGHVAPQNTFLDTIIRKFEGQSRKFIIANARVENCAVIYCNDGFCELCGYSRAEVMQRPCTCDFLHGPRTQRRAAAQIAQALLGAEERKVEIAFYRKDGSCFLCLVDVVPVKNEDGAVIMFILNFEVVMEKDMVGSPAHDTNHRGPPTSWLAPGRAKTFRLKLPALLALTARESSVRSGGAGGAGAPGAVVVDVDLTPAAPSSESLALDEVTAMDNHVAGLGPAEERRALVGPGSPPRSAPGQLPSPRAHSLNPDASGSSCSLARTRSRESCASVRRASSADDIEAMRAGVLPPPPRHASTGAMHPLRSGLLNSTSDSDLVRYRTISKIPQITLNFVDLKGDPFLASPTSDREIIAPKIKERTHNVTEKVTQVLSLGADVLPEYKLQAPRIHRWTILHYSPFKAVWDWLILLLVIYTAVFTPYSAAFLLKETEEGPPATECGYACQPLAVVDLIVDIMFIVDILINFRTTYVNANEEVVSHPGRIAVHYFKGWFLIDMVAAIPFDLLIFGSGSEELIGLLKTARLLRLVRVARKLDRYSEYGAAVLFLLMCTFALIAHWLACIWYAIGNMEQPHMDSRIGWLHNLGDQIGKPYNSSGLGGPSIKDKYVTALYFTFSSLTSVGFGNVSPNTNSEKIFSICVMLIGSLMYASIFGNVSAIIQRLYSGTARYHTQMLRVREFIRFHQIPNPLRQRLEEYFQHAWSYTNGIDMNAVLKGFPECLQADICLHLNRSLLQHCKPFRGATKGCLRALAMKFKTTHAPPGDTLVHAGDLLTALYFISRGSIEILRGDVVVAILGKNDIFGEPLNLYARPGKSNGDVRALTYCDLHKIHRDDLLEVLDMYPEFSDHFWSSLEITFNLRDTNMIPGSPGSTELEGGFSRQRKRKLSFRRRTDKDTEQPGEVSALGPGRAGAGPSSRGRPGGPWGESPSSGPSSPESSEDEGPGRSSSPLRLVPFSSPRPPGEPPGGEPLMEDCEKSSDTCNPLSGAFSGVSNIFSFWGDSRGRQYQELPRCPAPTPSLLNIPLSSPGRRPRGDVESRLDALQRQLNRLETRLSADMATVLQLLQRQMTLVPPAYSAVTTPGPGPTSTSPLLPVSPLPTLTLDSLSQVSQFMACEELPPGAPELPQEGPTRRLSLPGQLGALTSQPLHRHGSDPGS
T1 sequence (Q12791 whole entry): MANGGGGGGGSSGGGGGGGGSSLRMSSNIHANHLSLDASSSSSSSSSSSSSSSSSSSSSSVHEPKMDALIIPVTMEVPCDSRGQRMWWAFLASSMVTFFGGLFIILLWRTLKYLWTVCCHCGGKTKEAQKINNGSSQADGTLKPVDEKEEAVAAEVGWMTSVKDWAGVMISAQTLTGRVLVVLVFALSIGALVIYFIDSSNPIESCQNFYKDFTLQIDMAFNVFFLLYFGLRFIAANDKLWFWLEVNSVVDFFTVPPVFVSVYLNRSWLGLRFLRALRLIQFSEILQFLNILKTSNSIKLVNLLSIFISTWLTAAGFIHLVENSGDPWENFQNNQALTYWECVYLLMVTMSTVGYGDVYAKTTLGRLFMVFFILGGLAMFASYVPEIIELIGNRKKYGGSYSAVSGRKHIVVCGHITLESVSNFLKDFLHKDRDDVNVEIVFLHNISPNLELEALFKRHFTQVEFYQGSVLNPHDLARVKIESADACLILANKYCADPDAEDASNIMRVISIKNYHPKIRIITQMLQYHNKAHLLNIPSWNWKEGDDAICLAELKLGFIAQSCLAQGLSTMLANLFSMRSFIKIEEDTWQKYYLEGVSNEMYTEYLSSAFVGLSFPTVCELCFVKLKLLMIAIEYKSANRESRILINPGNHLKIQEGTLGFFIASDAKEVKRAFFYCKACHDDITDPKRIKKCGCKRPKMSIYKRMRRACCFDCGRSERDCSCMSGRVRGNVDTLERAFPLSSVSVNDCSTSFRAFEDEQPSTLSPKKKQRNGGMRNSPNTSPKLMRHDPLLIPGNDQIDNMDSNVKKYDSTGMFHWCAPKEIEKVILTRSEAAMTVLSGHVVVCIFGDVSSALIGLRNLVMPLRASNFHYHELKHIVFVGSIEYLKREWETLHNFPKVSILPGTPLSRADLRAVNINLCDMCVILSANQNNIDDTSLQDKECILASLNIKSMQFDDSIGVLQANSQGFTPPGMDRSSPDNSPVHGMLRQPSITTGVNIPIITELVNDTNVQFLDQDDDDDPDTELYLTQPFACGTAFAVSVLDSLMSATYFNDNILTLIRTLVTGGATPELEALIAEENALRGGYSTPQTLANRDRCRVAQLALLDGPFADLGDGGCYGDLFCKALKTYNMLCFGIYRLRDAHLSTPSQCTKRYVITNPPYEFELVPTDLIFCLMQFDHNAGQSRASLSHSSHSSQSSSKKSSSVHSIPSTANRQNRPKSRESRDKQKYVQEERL

By IC50 is commonly meant the concentration at which inhibition is half-maximal. As to `O=C(CCCS(=O)(=O)c1ccc(Cl)cc1)N1CCC(Oc2nc3ccccc3s2)CC1` [VU0528254], the IC50 against hSLO1 [1] turned out to be 34000 nM; on hERG [2], 928 nM; at human SLO3 [3], 223 nM. The “SLO1 selectivity (fold selective for SLO3)” value at hSLO1 [1] worked out at 153 fold. Moreover, the selectivity ratio on hERG [2] was determined as 4.2.
As to `COc1ccc(SCC2CCN(C(=O)Cc3ccc(S(=O)(=O)C(C)C)cc3)CC2)cc1` [VU0546110], on hSLO1 [4], the “selectivity for SLO3 over SLO1” value was 46 fold. On hERG [5], the “selectivity for SLO3 over hERG” value is listed as 1.5 fold. Besides, the IC50 at human SLO3 [6] is 1290 nM.
On to `O=C(c1ccc(OCc2nc(C3CC3)cs2)cc1)N1CCN(c2ccc(C(F)(F)F)cn2)CC1` [VU0530373], for which the IC50 against hSLO1 [1] was found to be 6380 nM; against hERG [2], 511 nM; on human SLO3 [3], 445 nM. Also, the “SLO1 selectivity (fold selective for SLO3)” value at hSLO1 [1] turned out to be 14 fold. Further, the selectivity ratio on hERG [2] was determined as 1.1.
